# Target: T1, KRAS G12C 1-169, his-tagged protein, GDP-loaded (Homo sapiens, UniProt P01116, G12C)
# T1 construct: KRAS G12C 1-169, his-tagged protein, GDP-loaded
# Assay: Covalent binding (% modification) to KRAS G12C by mass spectrometry; note: test concentration or dose not given here
# [1] = covalent binding to KRAS G12C after a ten minute incubation period
# [2] = covalent binding to KRAS G12C after a three minute incubation period
SMILES,Binding % [1],Binding % [2]
"C=CC(=O)N1C[C@H](C)N(c2nc(OCCN(CC)CC)nc3c(F)c(-c4c(O)cccc4F)c(Cl)cc23)C[C@H]1C [Compound 48, 1-((2R,5S)-4-(6-chloro-2-(2-(diethylamino)ethoxy)-8-fluoro-7-(2-fluoro-6-hydroxyphenyl)quinazolin-4-yl)-2,5-dimethyl-piperazin-1-yl) prop-2-en-1-one]",++ (++ indicates binding activity from 50 to 90%),
"C=CC(=O)N1C[C@@H](C)N(c2nc(N3CC(N(C)C)C3)nc3c(F)c(-c4c(O)cccc4F)c(Cl)cc23)C[C@H]1C [Compound 80, 1-((2R,5R)-4-(6-chloro-2-(3-(dimethylamino)azetidin-1-yl)-8-fluoro-7-(2-fluoro-6-hydroxyphenyl)quinazolin-4-yl)-2,5-dimethyl-piperazin-1-yl) prop-2-en-1-one]",+ (+ indicates binding activity up to 50%),
"C=CC(=O)N1[C@H](C)CN(c2nc(OCCc3ccccn3)nc3c(F)c(-c4c(O)cccc4F)c(Cl)cc23)C[C@@H]1C [Compound 36, 1-((2R,6S)-4-(6-chloro-8-fluoro-7-(2-fluoro-6-hydroxyphenyl)-2-(2-(pyridin-2-yl)ethoxy)quinazolin-4-yl)-2,6-dimethyl-piperazin-1-yl) prop-2-en-1-one]",++ (++ indicates binding activity from 50 to 90%),
"C=CC(=O)N1C[C@H](C)N(c2nc(N3CC(N(CC)C4CC4)C3)nc3c(F)c(-c4c(C)ccc5[nH]ncc45)c(Cl)cc23)C[C@H]1C [Compound 125, 1-((2R,5S)-4-(6-chloro-2-(3-(cyclopropyl (ethyl)amino)azetidin-1-yl)-8-fluoro-7-(5-methyl-1H-indazol-4-yl)quinazolin-4-yl)-2,5-dimethyl-piperazin-1-yl) prop-2-en-1-one]",,++ (++ indicates binding activity from 50 to 90%)
"C=CC(=O)N1C[C@H](C)N(c2nc(N3CC(N(C)C)C3)nc3c(F)c(-c4ccccc4F)c(Cl)cc23)C[C@H]1C [Compound 132, 1-((2R,5S)-4-(6-chloro-2-(3-(dimethylamino)azetidin-1-yl)-8-fluoro-7-(2-fluorophenyl)quinazolin-4-yl)-2,5-dimethyl-piperazin-1-yl) prop-2-en-1-one]",,++ (++ indicates binding activity from 50 to 90%)
"C=CC(=O)N1C[C@H](C)N(c2nc(OCCN3CC(F)(F)C3)nc3c(F)c(-c4c(O)cccc4F)c(Cl)cc23)C[C@H]1C (atropisomer, axis not shown) [Compound 83, 1-((2R,5S)-4-((R)-6-chloro-2-(2-(3,3-difluoroazetidin-1-yl)ethoxy)-8-fluoro-7-(2-fluoro-6-hydroxyphenyl)quinazolin-4-yl)-2,5-dimethyl-piperazin-1-yl) prop-2-en-1-one]",+ (+ indicates binding activity up to 50%),
"C=CC(=O)N1CCN(c2nc(N3CC(N(CC)CC)C3)nc3c(F)c(-c4c(C)ccc5[nH]ncc45)c(Cl)cc23)C[C@H]1C [Compound 166, 1-((2R)-4-(6-chloro-2-(3-(diethylamino)azetidin-1-yl)-8-fluoro-7-(5-methyl-1H-indazol-4-yl)quinazolin-4-yl)-2-methyl-piperazin-1-yl) prop-2-en-1-one]",,++ (++ indicates binding activity from 50 to 90%)
"C=CC(=O)N1CCN(c2nc(OCCN3CC(F)(F)C3)nc3c(F)c(-c4c(O)cccc4F)c(Cl)cc23)C[C@H]1C (atropisomer, axis not shown) [Compound 62, 1-((R)-4-((R)-6-chloro-2-(2-(3,3-difluoroazetidin-1-yl)ethoxy)-8-fluoro-7-(2-fluoro-6-hydroxyphenyl)quinazolin-4-yl)-2-methyl-piperazin-1-yl) prop-2-en-1-one]",+ (+ indicates binding activity up to 50%),
"C[C@@H]1CN(c2nc(N3CC(N(C)C)C3)nc3c(F)c(-c4c(O)cccc4F)c(Cl)cc23)[C@@H](C)CN1C(=O)C#CCO [Compound 113, 1-((2R,5S)-4-(6-chloro-2-(3-(dimethylamino)azetidin-1-yl)-8-fluoro-7-(2-fluoro-6-hydroxyphenyl)quinazolin-4-yl)-2,5-dimethyl-piperazin-1-yl)-4-hydroxybut-2-yn-1-one]",,+++ (+++ indicates binding activity greater than 90%)
"C=CC(=O)N1CCN(c2nc(N3CC(N(C)C)C3)nc3c(F)c(-c4c(O)cccc4F)c(Cl)cc23)C[C@H]1C (atropisomer, axis not shown) [Compound 60, 1-((R)-4-((S)-6-chloro-2-(3-(dimethylamino)azetidin-1-yl)-8-fluoro-7-(2-fluoro-6-hydroxyphenyl)quinazolin-4-yl)-2-methyl-piperazin-1-yl) prop-2-en-1-one]",+++ (+++ indicates binding activity greater than 90%),
"C=CC(=O)N1[C@H](C)CN(c2nc(OCCN3CC(F)(F)C3)nc3c(F)c(-c4c(O)cccc4F)c(Cl)cc23)C[C@@H]1C [Compound 32, 1-((2R,6S)-4-(6-chloro-2-(2-(3,3-difluoroazetidin-1-yl)ethoxy)-8-fluoro-7-(2-fluoro-6-hydroxyphenyl)quinazolin-4-yl)-2,6-dimethyl-piperazin-1-yl) prop-2-en-1-one]",+++ (+++ indicates binding activity greater than 90%),
"C=CC(=O)N1C[C@H](C)N(c2nc(N3CC(C)(N(C)C)C3)nc3c(F)c(-c4c(O)cccc4F)c(Cl)cc23)C[C@H]1C [Compound 104, 1-((2R,5S)-4-(6-chloro-2-(3-(dimethylamino)-3-methylazetidin-1-yl)-8-fluoro-7-(2-fluoro-6-hydroxyphenyl)quinazolin-4-yl)-2,5-dimethyl-piperazin-1-yl) prop-2-en-1-one]",,+++ (+++ indicates binding activity greater than 90%)
"C=CC(=O)N1C[C@H](C)N(c2nc(N3CC(N(C)C4CCC4)C3)nc3c(F)c(-c4c(O)cccc4F)c(Cl)cc23)C[C@H]1C (atropisomer, axis not shown) [Compound 138, 1-((2R,5S)-4-(6-chloro-2-(3-(cyclobutyl (methyl)amino)azetidin-1-yl)-8-fluoro-7-((S)-2-fluoro-6-hydroxyphenyl)quinazolin-4-yl)-2,5-dimethyl-piperazin-1-yl) prop-2-en-1-one]",,+++ (+++ indicates binding activity greater than 90%)
"C=CC(=O)N1C[C@H](C)N(c2nc(N3CC(N(C)C)C3)nc3c(F)c(-c4cc5ccccc5cc4O)c(Cl)cc23)C[C@H]1C [Compound 146, 1-((2R,5S)-4-(6-chloro-2-(3-(dimethylamino)azetidin-1-yl)-8-fluoro-7-(3-hydroxynaphthalen-2-yl)quinazolin-4-yl)-2,5-dimethyl-piperazin-1-yl) prop-2-en-1-one]",,+ (+ indicates binding activity greater than 0% and up to 50%)
"C=CC(=O)N1C[C@H](C)N(c2nc(OCCCN(C)C)nc3c(F)c(-c4cc(O)cc5ccccc45)c(Cl)cc23)C[C@H]1C [Compound 181, 1-((2R,5S)-4-(6-chloro-2-(3-(dimethylamino)propoxy)-8-fluoro-7-(3-hydroxy-naphthalen-1-yl)quinazolin-4-yl)-2,5-dimethyl-piperazin-1-yl) prop-2-en-1-one]",,+++ (+++ indicates binding activity greater than 90%)
"C=CC(=O)N1CCN(c2nc(N3CC(C)(N(C)C)C3)nc3c(F)c(-c4c(O)cccc4F)c(Cl)cc23)[C@@H](C)C1 [Compound 153, 1-((3S)-4-(6-chloro-2-(3-(dimethylamino)-3-methylazetidin-1-yl)-8-fluoro-7-(2-fluoro-6-hydroxyphenyl)quinazolin-4-yl)-3-methyl-piperazin-1-yl) prop-2-en-1-one]",,+++ (+++ indicates binding activity greater than 90%)

# From patent US10646488B2 (Araxes Pharma LLC, priority 2016, dated 2020)
